One data set concerns HSV-1. The data set can be described thus: Dermal HSV-1 infection in guinea pigs, topical treatment, compared with placebo/vehicle. Format: in vivo. The following applies: guinea pig; for reduction in lesion area (in words) / reduction in lesion number (in words) / reduction in lesion virus titer / skin viral titres (in words): dermal HSV-1, topical, compared to vehicle or to Prodrug 1. The method, then:
The formulation for Prodrug 1 contained 5% EL-620 EMULPHOR (polyoxyethylated castor oil) (Rhone Poluenc), 5% CARBOPOL (Carboxypolymethylene, sodium salt) (B. F. Goodrich), 10% ethanol and 2% by weight Prodrug 1. The balance of the formulation consisted of water.
EL-620 EMULPHOR and water were mixed and ultrasonicated to give a clear emulsion, to which the ethanol was added. The prodrug was then added, and the mixture was ultrasonicated. The sodium carbopol was then added to the emulsion and mixed until to homogeneity.
The placebo was prepared identically to the pharmaceutical compositions except that the prodrugs were omitted.
Female Hartley outbred guinea pigs, 400 to 450 grams, were obtained from Charles River Breeding Labs, Wilmington, Mass. Animals were anesthetized with 25 mg/kg ketamine and 5 mg/kg xylazine SQ. Hair on the dorsum from the shoulders to the rump was removed with electric clippers followed by two 5-10 minute applications of a chemical depilatory. A grid of four areas was demarcated with a pen on both sides of the spine at levels corresponding to mid back and rump.
Undiluted HSV-1 virus stock (0.035 ml) was applied to each different area and introduced through the skin at well-spaced sites at ten activations of a six-pronged spring-loaded vaccination instrument (Sterneedle, Pan Ray Division, Ormont Drug, Englewood, N.J.). The day of inoculation is Day 0. Approximately 250 mg of drug or placebo was applied to the areas according to the dosing regimen on Days 1, 2 and 3. Eight guinea pigs were used during the experiments allowing eight comparisons between each drug and its placebo.
On Day 4 regrown hair on the dorsum of the guinea pigs was removed with one 3-4 minute application of a chemical depilatory. HSV lesions were counted and Polaroid pictures of the animals' backs were taken. The animals were sacrificed using CO2 gas and the full thickness skin of the back was removed by dissection. The square of the skin from each of the four treatment areas was placed into 15 mls of tissue culture medium with 2% FBS in an ice bath. The samples were then homogenized in a stomacher Lab Blender 80 (Tekmar Co.). Debris was pelleted by centrifugation and the supernatants collected and frozen at −70° C. until assay for infectivity by plaque formation in VERO cells.
The mean and standard deviation for number of lesions, total lesion area and lesion virus titer were computed. Paired data (drug/vehicle) were evaluated by the Wilcoxon signed-rank test using percent differences between log10 derivatives of mean lesions severity at drug-treated sites compared to the vehicle-treated sites.
Prodrug 2 was formulated as described in Example 1. One Hartley guinea pig was inoculated with HSV-1 as described in Example 1. The guinea pig was treated with Prodrug 2 according to the protocol used in Example 1 for Prodrug 1.

The subject of a further data set is pig liver esterase. As to the kind of experiment: Incubation with pig liver esterase in phosphate buffered D2O, followed by NMR. Format: in vitro ADME. An excerpt:
This assay is described in Glazier, WO 91/19721 entitled “Phosphorus Prodrugs” and can be used to determine suitable hydroxyl or amino protecting groups which can be cleaved in vivo. The entire teachings of […] are incorporated herein by reference. It is to be understood that there are other in vitro assays known to one of ordinary skill in the art employing esterases, amidases or enzymes capable of cleaving carbonate, carbamate, ester and amide groups which can also be used to determine suitable protecting groups.

The test system of another data set is herpes simplex labialis. The following applies: cited from earlier work.
The mark [1] stands for this setting: dermal HSV-1, topical 2% formulation, Days 1-3, read Day 4, p<0.01.

This is an account of results in US20010012893A1, “Acyclovir diester derivatives” (Drug Innovation & Design, Inc., priority 1997, published 2001).

“Also recorded” adds a separate entry of the source.

`COC(=O)CC(OP(=O)([O-])OCCOCn1cnc2c(=O)[nH]c(N)nc21)c1ccc(OC(=O)C(C)(C)C)cc1.[Na+]` (stereo not drawn) [Prodrug 1]: in the data set on HSV-1 (setting [1]), the “reduction in lesion area compared with placebo” value was determined as 79% and the “reduction in lesion number compared with placebo” value is recorded as 72%. Also, the “reduction in skin viral titres compared with placebo” value with HSV-1 (dermal HSV-1, topical 2% formulation, Days 1-3, read Day 4, plaque formation in VERO cells, p<0.01) stood at 93%. For the same compound, in the data set on HSV-1, the “reduction in lesion area (in words)” value was “dramatic reduction”, the “reduction in lesion number (in words)” value was “dramatic reduction” and the “reduction in lesion virus titer / skin viral titres (in words)” value is recorded as “dramatic reduction”. The “degradation products with esterase” value in the data set with pig liver esterase is “degraded to acyclovir monophosphate and p-hydroxycinnamic”.
Consider `COC(=O)CC(OP(=O)([O-])OCCOCn1cnc2c(=O)[nH]c(N)nc21)c1ccc(OC(C)=O)cc1.[Na+]` (stereo not drawn) [Prodrug 2], for which, in the data set on HSV-1, the “reduction in lesion area (in words)” value is listed as “comparable reduction; also recorded: dramatic reduction”, the “reduction in lesion number (in words)” value is “comparable reduction; also recorded: dramatic reduction” and the “reduction in lesion virus titer / skin viral titres (in words)” value is reported as “comparable reduction; also recorded: dramatic reduction”.
As to `Nc1nc2c(ncn2COCCO)c(=O)[nH]1` [acyclovir], in the data set on herpes simplex labialis (oral), the “effectiveness of oral administration for cold sores” value was “only partially effective”. Also, the “response of cold sores to topical treatment” value with herpes simplex labialis (topical) was “do not respond”.
